Reference: patent publication EP0368158A1, “Imidazo pyridines” (Byk Gulden Lomberg Chemische Fabrik GmbH, priority 1988, dated 1990)

System: durch Pentagastrin stimulierte Säuresekretion des perfundierten Rattenmagens
Assay: Inhibition of pentagastrin-stimulated acid secretion in the perfused rat stomach in vivo
Design: species or system Ratte
Description: Prüfung der sekretionshemmenden Wirkung am perfundierten Rattenmagen
In der folgenden Tabelle 2 ist der Einfluß der erfindungsgemäßen Verbindungen nach intravenöser Gabe auf die durch Pentagastrin stimulierte Säuresekretion des perfundierten Rattenmagens in vivo dargestellt.
Narkotisierten Ratten (CD-Ratte, weiblich, 200-250 g; 1,5 g/kg i.m. Urethan) wurde nach Tracheotomie das Abdomen durch einen medianen Oberbauchschnitt er-öffnet und ein PVC-Katheter transoral im Ösophagus sowie ein weiterer via Pylorus derart fixiert, daß die Schlauchenden eben noch in das Magenlumen hineinragten. Der aus dem Pylorus führende Katheter führte über eine seitliche Öffnung in der rechten Bauchwand nach außen.
Nach gründlicher Spülung (ca.50-100 ml) wurde der Magen mit 37 °C warmer physiologischer NaCl-Lösung kontinuierlich durchströmt (0,5 ml/min, pH 6,8-6,9; Braun-Unita I). In dem jeweils im 15 min-Abstand aufgefangenen (25 ml Meßzylinder) Effluat wurde der pH-Wert (pH-Meter 632, Glaselektrode EA 147; ⌀ = 5 mm, Metrohm) sowie durch Titration mit einer frisch zubereiteten 0,01 N NaOH bis pH 7 (Dosimat 655 Metrohm) die sezernierte HCl bestimmt.
Die Stimulation der Magensekretion erfolgte durch Dauerinfusion von 1µg/kg (=1,65 ml/h) i.v. Pentagastrin (V. fem. sin.) ca 30 min nach Operationsende (d.h. nach Bestimmung von 2 Vorfraktionen). […]

SMILES	ED50 (Rattus norvegicus, iv; i.v.; interpolated dose that causes a maximal inhibition of HCl secretion by 50 %; head says 'ca.'; read-out: Maximale Hemmung der Säureausscheidung ca. ED50 +) (µmol/kg) i.v.) [µmol/kg]	Maximale Hemmung der Säureausscheidung ca. ED50 +) (µmol/kg) i.v. (i.v., interpolated dose that causes a maximal inhibition of HCl secretion by 50 %, head says 'ca.')
COc1ccc(C(=O)O[C@@H]2Cc3ccccc3[C@H]2Oc2cccn3c(CO)c(C)nc23)cc1 (relative stereo) [Beispiel 2, 3-Hydroxymethyl-8-[trans-2-(4-methoxybenzoyloxy)-2,3-dihydro-1-indenyloxy]-2-methyl-imidazo[1,2-a]pyridin]	~1.1	
COCC(=O)O[C@@H]1Cc2cc(F)ccc2[C@H]1Oc1cccn2c(CO)c(C)nc12 (relative stereo) [Beispiel 5, 8-(5-Fluor-trans-2-methoxyacetoxy-2,3-dihydro-1-indenyloxy)-3-hydroxymethyl-2-methyl-imidazo[1,2-a]pyridin]		~0,8 µmol/kg
